Tests used:
[1] = tested on: α(13/4)fucosyltransferase; assay: Fucosyltransferase assay: relative rates of fucose transfer onto the 3-hydroxy of GlcNAc in βGal(1-4)βGlcNAc-OR; assay type: biochemical, human; settings: fucosylation of disaccharide glycosides βGal(1-4)βGlcNAc-OR with different substituents at the 6-position of galactose
Procedure: The βGlcNAc α(13/4)fucosyltranferase was purified from human milk, as reported.^4 The enzymatic reactions were carried out at 37° C. in a plastic tube using a sodium cacodylate buffer (100 mM, pH 6.5), MnCl2 (10 mM), ATP (1.6 mM), NaN3 (1.6 mM). The reaction products were isolated and purified as indicated above.
Experiments were conducted to determine the relative rates of transfer of fucosylation onto the 3-hydroxy of the GlcNAc in disaccharide glycosides βGal(1-4)βGlcNAc-OR having different substituents at the 6-position of the galactose. Fucosyltransferase assays were conducted with α(13/4)fucosyltransferase in a manner similar to that described in the art^4 and gave the following results: […]

Balb/c mice [2] = assay: Persistence of suppression of the DTH inflammatory response, rechallenge 11 weeks after primary immunization; assay type: in vivo, mouse; settings: rechallenge with L111 S-Layer protein 11 weeks after primary immunization
Procedure: (§1) DTH inflammatory responses were measured using the mouse footpad swelling assay as described by Smith and Ziola^31. […] Seven days later, each group of mice was footpad-challenged with 10 μg of L-111 S-Layer protein. The resulting inflammatory footpad swelling was measured with a Mitutoyo Engineering micrometer 24 hours after challenge.
i. The identical groups of mice treated with hexasaccharide glycoside 5a in Example 7 were rechallenged with L111 S-Layer protein 11 weeks after primary immunization.

ELAM-1 = ELAM-1 dependent cell adhesion to activated vascular endothelium (U937 or HL60 binding to TNFα-stimulated HUVECs); assay type: cell-based, human; settings: HUVECs stimulated with TNFα (10 ng/ml); U937 or HL60 cells
Procedure: This example examines whether hexasaccharide 5a could inhibit ELAM-1 dependent cell adhesion to activated vascular endothelium. Specifically, an vitro cell binding assay was preformed as described by Lowe et al^33. Briefly, human umbilical vein endothelial cells (HUVECs purchased from Cell Systems, Seattle, Wash., USA) were stimulated with TNFα (10 ng/ml) to express ELAM-1.

Balb/c mice [3] = assay: Mouse footpad swelling assay, DTH inflammatory response to L111 S-Layer protein; assay type: in vivo; design: INCREASE IN FOOTPAD SWELLING: unit not given here
Procedure: as §1
To assess the effect of hexasaccharide glycoside 5a on the inflammatory DTH response, groups of mice received 100 μg of this compound, injected into the tail vein, 5 hours after challenge. Control groups received 100 μL of phosphate-buffered saline (PBS).

SMILES	Relative Rate of Transfer [1]	footpad swelling relative to that exhibited in mice treated with PBS (Balb/c mice [2])	reduction in footpad swelling (Balb/c mice [2]; versus PBS control)	inhibition of ELAM-1 dependent binding to the HUVECs (ELAM-1)	INCREASE IN FOOTPAD SWELLING (Balb/c mice [3]; 100 μg injected into the tail vein 5 hours after challenge, swelling measured 24 hours after challenge)	footpad swelling as compared to the control mice (Balb/c mice [3]; 100 μg into the tail vein 5 hours after challenge, 24 hours after challenge)
COC(=O)CCCCCCCCO[C@@H]1O[C@H](CO)[C@@H](O[C@@H]2O[C@H](CO)[C@H](O)[C@H](O)[C@H]2O)[C@H](O)[C@H]1NC(C)=O [--OH]	100	–	–	–	–	–
COC(=O)CCOCCO[C@@H]1O[C@H](CO)[C@@H](O[C@@H]2O[C@H](C)[C@H](O)[C@H](O)[C@H]2O)[C@H](O)[C@H]1NC(C)=O [H]	9	–	–	–	–	–
COC(=O)CCCCCCCCO[C@@H]1O[C@H](CO)[C@@H](O[C@@H]2O[C@H](CO)[C@H](O)[C@H](O[C@@H]3O[C@H](CO)[C@@H](O[C@@H]4O[C@H](CO)[C@H](O)[C@H](O[C@]5(C(=O)O)C[C@H](O)[C@@H](NC(C)=O)[C@H]([C@H](O)[C@H](O)CO)O5)[C@H]4O)[C@H](O)[C@H]3NC(C)=O)[C@H]2O)[C@H](O[C@@H]2O[C@@H](C)[C@@H](O)[C@@H](O)[C@@H]2O)[C@H]1NC(C)=O [hexasaccharide glycoside 5a, 8-Methoxycarbonyloctyl (5-Acetamido-3,5-dideoxy-α-D-glycero-D-galacto-2-nonulopyranosylonicacid)-(2-3)--O--β-D-galactopyranosyl-(1-4)--O-- 2-acetamido-2-deoxy-β-D-glucopyranosyl-(1-3)--O--β-D-galactopyranosyl-(1-4)--O--[α-L-fucopyranosyl-(1-3)--O--]2-acetamido-2-deoxy-β-D-glucopyranoside]	–	about 60%	about 40%	inhibits ELAM-1 dependent binding to the HUVECs	1.5	less than 50%
